The record followed here is ChEMBL document CHEMBL5143602, “Design, synthesis and antibacterial evaluation of pleuromutilin derivatives” (Bioorg Med Chem, 2022).

In assay [1] the test system is Staphylococcus aureus. In words: Antibacterial activity against methicillin-sensitive Staphylococcus aureus ATCC 29213 assessed as inhibition of bacterial growth incubated for 18 hrs by two-fold serial dilution method. Format: functional.
For assay [2], the system named is Staphylococcus aureus. Briefly: Antibacterial activity against methicillin-resistant Staphylococcus aureus ATCC 43300 assessed as inhibition of bacterial growth incubated for 18 hrs by two-fold serial dilution method. Format: functional.
Assay [3] deals with Enterococcus faecium. In words: Antibacterial activity against Enterococcus faecium ATCC19434 assessed as inhibition of bacterial growth incubated for 18 hrs by two-fold serial dilution method. Format: functional.
Assay [4] relates to Staphylococcus epidermidis. Briefly: Antibacterial activity against Staphylococcus epidermidis ATCC12228 assessed as inhibition of bacterial growth incubated for 18 hrs by two-fold serial dilution method. Format: functional.
Assay [5] concerns Staphylococcus aureus. In words: Bactericidal activity against methicillin-resistant Staphylococcus aureus ATCC 43300 at 4 times MIC and measured after 24 hrs by time kill curve assay relative to control. Format: functional, organism-based.
Assay [6] concerns HepG2. Briefly: Cytotoxicity against human HepG2 cells assessed as cell growth inhibition measured after 72 hrs by MTT assay. It is filed as functional, cell-based. The following applies: HepG2, 72 h. A general note: Tetrazolium assays rely on reduction of a dye to a coloured formazan, in cell work by metabolically active cells.
In assay [7] the test system is U-87 MG. Briefly: Cytotoxicity against human U87 cells assessed as cell growth inhibition measured after 72 hrs by MTT assay. It is filed as functional, cell-based, U-87MG ATCC.
The subject of assay [8] is HGC-27. Briefly: Cytotoxicity against human HGC-27 cells assessed as cell growth inhibition measured after 72 hrs by MTT assay. It is filed as functional, cell-based. As to conditions: HGC-27, 72 h.
Assay [9] has as its system HT-29. In words: Cytotoxicity against human HT-29 cells assessed as cell growth inhibition measured after 72 hrs by MTT assay. Format: functional, cell-based. The following applies: HT-29, 72 h.
Assay [10] concerns MCF7. In words: Cytotoxicity against human MCF7 cells assessed as cell growth inhibition measured after 72 hrs by MTT assay. It is filed as functional, cell-based. The following applies: MCF7, 72 h.
Assay [11] deals with Mycoplasmoides pneumoniae. In words: Antibacterial activity against Mycoplasma pneumoniae ATCC15531 assessed as inhibition of bacterial growth incubated for 18 hrs by two-fold serial dilution method. It is filed as functional.
Assay [12] has as its system Mycoplasmoides pneumoniae. Briefly: Antibacterial activity against Mycoplasma pneumoniae ATCC29342 assessed as inhibition of bacterial growth incubated for 18 hrs by two-fold serial dilution method. It is filed as functional.
The subject of assay [13] is Mycoplasmoides pneumoniae. In words: Antibacterial activity against drug resistant Mycoplasma pneumoniae assessed as inhibition of bacterial growth incubated for 18 hrs by two-fold serial dilution method. Format: functional.
The test system of assay [14] is Staphylococcus aureus. In words: Bactericidal activity against methicillin-resistant Staphylococcus aureus ATCC 43300 assessed as decrease in bacterial propagation at 2 to 8 times MIC and measured after 24 hrs by time kill curve assay relative to control. It is filed as functional, organism-based.

Values after ≈ are worked out from the molar mass of the structure shown. Active and inactive are the calls of the source. No cut-off for these calls is given here. Where only a bound is given, the exact number is not on record here.

On to `C=C[C@]1(C)C[C@@H](OC(=O)CSCCN(CC)CC)[C@]2(C)[C@H](C)CC[C@]3(CCC(=O)[C@H]32)[C@@H](C)[C@@H]1O` [TIAMULIN], for which the minimal inhibitory concentration (MIC) (usually the least concentration at which growth counts as inhibited) in assay [1] was 0.5 µg/mL (≈ 1.01 µM); in assay [2], 0.25 µg/mL (≈ 0.506 µM); in assay [3] it was 16 µg/mL (≈ 32.4 µM); in assay [4], 32 µg/mL (≈ 64.8 µM). For the same compound, the outcome in assay [5] was Active. Also, the IC50 in assay [6], in [7], in assay [8], in [9] and in assay [10] was greater than 10 µM throughout.

In the case of `C=C[C@]1(C)C[C@@H](OC(=O)CNC(=O)Nc2ccc(F)cc2F)[C@]2(C)[C@H](C)CC[C@]3(CCC(=O)[C@H]32)[C@@H](C)[C@@H]1O`, the MIC is 0.25 µg/mL (≈ 0.469 µM) in [1]; 0.25 µg/mL (≈ 0.469 µM) in assay [2]; 16 µg/mL (≈ 30 µM) in assay [3]; greater than 64 µg/mL in [4]; 0.25 µg/mL (≈ 0.469 µM) in assay [11]; 0.125 µg/mL (≈ 0.235 µM) in [12]. Besides, the MIC in assay [13] was found to be 1 µg/mL (≈ 1.88 µM). The IC50 in assay [6], in [7], in assay [8], in [9] and in [10] was greater than 10 µM throughout.

For `C=C[C@]1(C)C[C@@H](OC(=O)CNC(=O)Nc2ccc(OC)cc2)[C@]2(C)[C@H](C)CC[C@]3(CCC(=O)[C@H]32)[C@@H](C)[C@@H]1O`, the MIC is 0.0625 µg/mL (≈ 0.119 µM) in assay [1]; 0.5 µg/mL (≈ 0.949 µM) in assay [2]; 8 µg/mL (≈ 15.2 µM) in [3]; greater than 64 µg/mL in assay [4]; 0.125 µg/mL (≈ 0.237 µM) in assay [11]; 0.0625 µg/mL (≈ 0.119 µM) in assay [12]. In addition, the MIC in assay [13] was 0.5 µg/mL (≈ 0.949 µM). For the same compound, the result in assay [14] was Active. Besides, the IC50 in [6], in assay [7], in assay [8], in assay [9] and in assay [10] was greater than 10 µM each time.

For `C=C[C@]1(C)C[C@@H](OC(=O)CNC(=O)Nc2cccc(Br)c2)[C@]2(C)[C@H](C)CC[C@]3(CCC(=O)[C@H]32)[C@@H](C)[C@@H]1O`, the MIC is 0.0625 µg/mL (≈ 0.109 µM) in [1]; 0.25 µg/mL (≈ 0.434 µM) in assay [2]; 4 µg/mL (≈ 6.95 µM) in assay [3]; greater than 64 µg/mL in assay [4]; 0.25 µg/mL (≈ 0.434 µM) in assay [11]; 0.25 µg/mL (≈ 0.434 µM) in assay [12]. Besides, the MIC in assay [13] turned out to be 1 µg/mL (≈ 1.74 µM). In addition, the IC50 (as a rule, the concentration needed to halve the response being measured) is greater than 10 µM in assay [6]; greater than 10 µM in assay [7]; 3.95 µM in assay [8]; greater than 10 µM in [9]; greater than 10 µM in assay [10].

Regarding `C=C[C@]1(C)C[C@@H](OC(=O)CNC(=O)Nc2ccc(F)cc2)[C@]2(C)[C@H](C)CC[C@]3(CCC(=O)[C@H]32)[C@@H](C)[C@@H]1O`, the MIC in assay [1] was 0.5 µg/mL (≈ 0.972 µM); in assay [2] it was 0.125 µg/mL (≈ 0.243 µM); in assay [3], 16 µg/mL (≈ 31.1 µM); in [4] it was greater than 64 µg/mL; in assay [11], 0.25 µg/mL (≈ 0.486 µM); in assay [12], 0.125 µg/mL (≈ 0.243 µM). Moreover, the MIC in assay [13] is 1 µg/mL (≈ 1.94 µM). Further, the IC50 in [6], in [7], in assay [8], in assay [9] and in assay [10] was greater than 10 µM throughout.

Turning to `C=C[C@]1(C)C[C@@H](OC(=O)CNC(=O)NC(=O)c2ccccc2F)[C@]2(C)[C@H](C)CC[C@]3(CCC(=O)[C@H]32)[C@@H](C)[C@@H]1O`, the MIC in assay [1] was 0.5 µg/mL (≈ 0.921 µM); in assay [2], 0.5 µg/mL (≈ 0.921 µM); in assay [3], 8 µg/mL (≈ 14.7 µM); in assay [4], greater than 64 µg/mL; in [11], 1 µg/mL (≈ 1.84 µM); in assay [12], greater than 8 µg/mL. Further, the MIC in assay [13] came to 2 µg/mL (≈ 3.69 µM).

For the compound `C=C[C@]1(C)C[C@@H](OC(=O)CNC(=O)Nc2ccccc2Br)[C@]2(C)[C@H](C)CC[C@]3(CCC(=O)[C@H]32)[C@@H](C)[C@@H]1O`, the MIC was 0.25 µg/mL (≈ 0.434 µM) in [1]; 0.25 µg/mL (≈ 0.434 µM) in assay [2]; 32 µg/mL (≈ 55.6 µM) in assay [3]; greater than 64 µg/mL in assay [4]; 0.5 µg/mL (≈ 0.869 µM) in assay [11]; 0.5 µg/mL (≈ 0.869 µM) in assay [12]. In addition, the MIC in assay [13] stood at 2 µg/mL (≈ 3.47 µM). For the same compound, the IC50 in assay [6], in [7], in [8], in [9] and in assay [10] was greater than 10 µM each time.
